Reference: PMC7230820, “Anti-Inflammatory Effects of Fucoxanthinol in LPS-Induced RAW264.7 Cells through the NAAA-PEA Pathway” (Marine Drugs, 2020)

Experiments:
[1] = biological target: T1, N-acylethanolamine acid amidase (NAAA) (Homo sapiens, UniProt Q02083); assay: recombinant enzyme activity assay, heptaenyl ethanolamide substrate, pH […]; type: biochemical
T1 sequence (Q02083 29-125): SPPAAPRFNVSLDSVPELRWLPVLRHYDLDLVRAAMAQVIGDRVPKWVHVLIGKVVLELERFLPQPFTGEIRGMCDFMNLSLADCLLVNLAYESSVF
T1 sequence (Q02083 126-359): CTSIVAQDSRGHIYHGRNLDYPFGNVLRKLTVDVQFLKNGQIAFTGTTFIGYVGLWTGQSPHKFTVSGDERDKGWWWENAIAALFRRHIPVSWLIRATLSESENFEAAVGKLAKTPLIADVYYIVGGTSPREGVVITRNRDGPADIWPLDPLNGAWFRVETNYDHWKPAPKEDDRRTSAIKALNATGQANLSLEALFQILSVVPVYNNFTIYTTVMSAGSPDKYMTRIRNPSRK

[2] = biological target: T2, fatty acid amide hydrolase (FAAH) (Homo sapiens, UniProt O00519); assay: recombinant enzyme activity assay, anandamide substrate, pH […]; type: biochemical
T2 sequence (O00519 1-579): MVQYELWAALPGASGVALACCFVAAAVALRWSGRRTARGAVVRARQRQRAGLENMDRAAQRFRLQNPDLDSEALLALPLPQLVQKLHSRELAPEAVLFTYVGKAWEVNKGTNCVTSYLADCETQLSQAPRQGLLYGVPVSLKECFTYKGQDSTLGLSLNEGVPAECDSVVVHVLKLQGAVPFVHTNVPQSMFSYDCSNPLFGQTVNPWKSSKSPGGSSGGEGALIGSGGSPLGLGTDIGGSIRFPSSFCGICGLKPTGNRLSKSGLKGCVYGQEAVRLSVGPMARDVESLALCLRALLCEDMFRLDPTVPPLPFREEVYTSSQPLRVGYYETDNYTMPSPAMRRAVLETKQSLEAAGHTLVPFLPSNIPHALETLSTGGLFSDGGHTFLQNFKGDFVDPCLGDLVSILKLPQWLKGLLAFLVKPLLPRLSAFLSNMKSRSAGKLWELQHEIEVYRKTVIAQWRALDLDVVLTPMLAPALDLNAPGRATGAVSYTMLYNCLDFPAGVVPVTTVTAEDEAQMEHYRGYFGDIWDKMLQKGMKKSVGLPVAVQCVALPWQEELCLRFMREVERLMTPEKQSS

SMILES | IC50 [1] | IC50 [2]
CC(=O)O[C@H]1CC(C)(C)C(=C=C/C(C)=C/C=C/C(C)=C/C=C/C=C(C)/C=C/C=C(\C)C(=O)C[C@@]23O[C@]2(C)C[C@@H](O)CC3(C)C)[C@](C)(O)C1 [FX, Fucoxanthin] | 31.4 ± 1.06 µM | 
C\C(C=C=C1C(C)(C)C[C@H](O)C[C@@]1(C)O)=C/C=C/C(C)=C/C=C/C=C(C)/C=C/C=C(\C)C(=O)C[C@@]12O[C@]1(C)C[C@@H](O)CC2(C)C [FXOH, Fucoxanthinol] | 12.8 ± 1.12 µM | 42.4 ± 1.11 µM
